Columns and labels:
Type in all cases: cell-based
HT-29 = assay: Cytotoxicity against human HT-29 cells assessed as effect on cell growth at 10 uM incubated for 48 hrs by sulforhodamine B assay; conditions: ht-29, 48 h
CCRF-CEM = assay: Cytotoxicity against human CCRF-CEM cells assessed as effect on cell growth at 10 uM incubated for 48 hrs by sulforhodamine B assay
LOX IMVI = assay: Cytotoxicity against human LOXIMVI cells assessed as effect on cell growth at 10 uM incubated for 48 hrs by sulforhodamine B assay
RPMI-8226 = assay: Cytotoxicity against human RPMI8226 cells assessed as effect on cell growth at 10 uM incubated for 48 hrs by sulforhodamine B assay; conditions: rpmi-8226, 48 h
A549 = assay: Cytotoxicity against human A549/ATCC cells assessed as effect on cell growth at 10 uM incubated for 48 hrs by sulforhodamine B assay; conditions: a549, 48 h
OVCAR-4 = assay: Cytotoxicity against human OVCAR4 cells assessed as effect on cell growth at 10 uM incubated for 48 hrs by sulforhodamine B assay; conditions: ovcar-4, 48 h
SK-OV-3 = assay: Cytotoxicity against human SKOV3 cells assessed as effect on cell growth at 10 uM incubated for 48 hrs by sulforhodamine B assay; conditions: sk-ov-3, 48 h
SK-MEL-28 = assay: Cytotoxicity against human SK-MEL-28 cells assessed as effect on cell growth at 10 uM incubated for 48 hrs by sulforhodamine B assay; conditions: sk-mel-28, 48 h
SF-539 = assay: Cytotoxicity against human SF539 cells assessed as effect on cell growth at 10 uM incubated for 48 hrs by sulforhodamine B assay; conditions: sf-539, 48 h
SF-268 = assay: Cytotoxicity against human SF268 cells assessed as effect on cell growth at 10 uM incubated for 48 hrs by sulforhodamine B assay; conditions: sf-268, 48 h
HOP-62 = assay: Cytotoxicity against human HOP62 cells assessed as effect on cell growth at 10 uM incubated for 48 hrs by sulforhodamine B assay; conditions: hop-62, 48 h
HCT-116 = assay: Cytotoxicity against human HCT116 cells assessed as effect on cell growth at 10 uM incubated for 48 hrs by sulforhodamine B assay; conditions: hct-116, 48 h
NCI/ADR-RES = assay: Cytotoxicity against human NCI/ADR-RES cells assessed as effect on cell growth at 10 uM incubated for 48 hrs by sulforhodamine B assay
OVCAR-3 = assay: Cytotoxicity against human OVCAR3 cells assessed as effect on cell growth at 10 uM incubated for 48 hrs by sulforhodamine B assay; conditions: ovcar-3, 48 h
SW-620 = assay: Cytotoxicity against human SW620 cells assessed as effect on cell growth at 10 uM incubated for 48 hrs by sulforhodamine B assay; conditions: sw-620, 48 h
UACC-257 = assay: Cytotoxicity against human UACC257 cells assessed as effect on cell growth at 10 uM incubated for 48 hrs by sulforhodamine B assay; conditions: uacc-257, 48 h
MOLT-4 = assay: Cytotoxicity against human MOLT4 cells assessed as effect on cell growth at 10 uM incubated for 48 hrs by sulforhodamine B assay; conditions: molt-4, 48 h
SN12C = assay: Cytotoxicity against human SN12C cells assessed as effect on cell growth at 10 uM incubated for 48 hrs by sulforhodamine B assay
K562 = assay: Cytotoxicity against human K562 cells assessed as effect on cell growth at 10 uM incubated for 48 hrs by sulforhodamine B assay; conditions: k562, 48 h
A498 = assay: Cytotoxicity against human A498 cells assessed as effect on cell growth at 10 uM incubated for 48 hrs by sulforhodamine B assay; conditions: a498, 48 h

Measured: Activity

O=C(NCc1ccc(Cl)cc1Cl)[C@@H]1CCC(=O)N1C(c1ccccc1)c1ccccc1
Non-Toxic: HT-29 | CCRF-CEM | LOX IMVI | RPMI-8226 | A549 | OVCAR-4 | SK-OV-3 | SK-MEL-28 | SF-539 | SF-268 | HOP-62 | HCT-116 | NCI/ADR-RES | OVCAR-3 | SW-620 | UACC-257 | MOLT-4 | SN12C | K562 | A498

CCCCCCN1C(=O)[C@@H]2C/C(=C\N(C)C)C(=O)N2C1N(C)C (stereo not given in full)
Non-Toxic: HT-29 | CCRF-CEM | LOX IMVI | RPMI-8226 | A549 | OVCAR-4 | SK-OV-3 | SK-MEL-28 | SF-539 | SF-268 | HOP-62 | HCT-116 | NCI/ADR-RES | OVCAR-3 | SW-620 | UACC-257 | MOLT-4 | SN12C | K562 | A498

CN1CCN(/C=C2\C[C@@H](C(=O)NCc3ccc(Cl)cc3Cl)N(c3cccs3)C2=O)CC1
Non-Toxic: HT-29 | CCRF-CEM | LOX IMVI | RPMI-8226 | A549 | OVCAR-4 | SK-OV-3 | SK-MEL-28 | SF-539 | SF-268 | HOP-62 | HCT-116 | NCI/ADR-RES | OVCAR-3 | SW-620 | UACC-257 | MOLT-4 | SN12C | K562 | A498

COc1ccc(NC(=O)[C@@H]2C/C(=C\N(C)C)C(=O)N2)cc1
Non-Toxic: HT-29 | CCRF-CEM | LOX IMVI | RPMI-8226 | A549 | OVCAR-4 | SK-OV-3 | SK-MEL-28 | SF-539 | SF-268 | HOP-62 | HCT-116 | NCI/ADR-RES | OVCAR-3 | SW-620 | UACC-257 | MOLT-4 | SN12C | K562 | A498

O=C(NCc1ccc(Cl)cc1Cl)[C@@H]1CCC(=O)N1c1ccc(Cl)cc1Cl
Non-Toxic: HT-29 | CCRF-CEM | LOX IMVI | RPMI-8226 | A549 | OVCAR-4 | SK-OV-3 | SK-MEL-28 | SF-539 | SF-268 | HOP-62 | HCT-116 | NCI/ADR-RES | OVCAR-3 | SW-620 | UACC-257 | MOLT-4 | SN12C | K562 | A498

CN(C)C(=O)[C@@H]1CCC(=O)N1
Non-Toxic: HT-29 | CCRF-CEM | LOX IMVI | RPMI-8226 | A549 | OVCAR-4 | SK-OV-3 | SK-MEL-28 | SF-539 | SF-268 | HOP-62 | HCT-116 | NCI/ADR-RES | OVCAR-3 | SW-620 | UACC-257 | MOLT-4 | SN12C | K562 | A498

CN1C(=O)C(C)(C)C[C@H]1C(=O)NCc1cccc(C(F)(F)F)c1Cl
Non-Toxic: HT-29 | CCRF-CEM | LOX IMVI | RPMI-8226 | A549 | OVCAR-4 | SK-OV-3 | SK-MEL-28 | SF-539 | SF-268 | HOP-62 | HCT-116 | NCI/ADR-RES | OVCAR-3 | SW-620 | UACC-257 | MOLT-4 | SN12C | K562 | A498

N#Cc1ccc(N2C(=O)CC[C@H]2C(=O)NCc2ccc(Cl)cc2Cl)cc1
Non-Toxic: HT-29 | CCRF-CEM | LOX IMVI | RPMI-8226 | A549 | OVCAR-4 | SK-OV-3 | SK-MEL-28 | SF-539 | SF-268 | HOP-62 | HCT-116 | NCI/ADR-RES | OVCAR-3 | SW-620 | UACC-257 | MOLT-4 | SN12C | K562 | A498

CCCCCCN1C(=O)[C@@H]2CCC(=O)N2C1N(C)C (stereo not given in full)
Non-Toxic: HT-29 | CCRF-CEM | LOX IMVI | RPMI-8226 | A549 | OVCAR-4 | SK-OV-3 | SK-MEL-28 | SF-539 | SF-268 | HOP-62 | HCT-116 | NCI/ADR-RES | OVCAR-3 | SW-620 | UACC-257 | MOLT-4 | SN12C | K562 | A498

O=C1N[C@H](C(=O)NCc2ccc(Cl)cc2Cl)C/C1=C/NCc1ccc(Cl)cc1Cl
Non-Toxic: HT-29 | CCRF-CEM | LOX IMVI | RPMI-8226 | A549 | OVCAR-4 | SK-OV-3 | SK-MEL-28 | SF-539 | SF-268 | HOP-62 | HCT-116 | NCI/ADR-RES | OVCAR-3 | SW-620 | UACC-257 | MOLT-4 | SN12C | K562 | A498

CN(C)/C=C1\C[C@H]2C(=O)N(/C(=C/N(C)C)c3ccncc3)C(N(C)C)N2C1=O (stereo not given in full)
Non-Toxic: HT-29 | CCRF-CEM | LOX IMVI | RPMI-8226 | A549 | OVCAR-4 | SK-OV-3 | SK-MEL-28 | SF-539 | SF-268 | HOP-62 | HCT-116 | NCI/ADR-RES | OVCAR-3 | SW-620 | UACC-257 | MOLT-4 | SN12C | K562 | A498

O=C(NCCc1ccc(Cl)cc1Cl)[C@@H]1CCC(=O)N1c1ccccc1
Non-Toxic: HT-29 | CCRF-CEM | LOX IMVI | RPMI-8226 | A549 | OVCAR-4 | SK-OV-3 | SK-MEL-28 | SF-539 | SF-268 | HOP-62 | HCT-116 | NCI/ADR-RES | OVCAR-3 | SW-620 | UACC-257 | MOLT-4 | SN12C | K562 | A498

O=C(NCc1ccc(Cl)cc1Cl)[C@@H]1CCC(=O)N1c1cccs1
Non-Toxic: HT-29 | CCRF-CEM | LOX IMVI | RPMI-8226 | A549 | OVCAR-4 | SK-OV-3 | SK-MEL-28 | SF-539 | SF-268 | HOP-62 | HCT-116 | NCI/ADR-RES | OVCAR-3 | SW-620 | UACC-257 | MOLT-4 | SN12C | K562 | A498

From ChEMBL document CHEMBL4627246, “Pyroglutamide-Based P2X7 Receptor Antagonists Targeting Inflammatory Bowel Disease” (J Med Chem, 2020)
